Measurements published in US12139520B2 (priority 2020, dated 2024).
Numbered stars: 1 amine (or outer) side, 2 acyl side, 3 side chain; on linkers, the order of the positions; unused ones are H or OH. Bridge positions count the residues as written; N and C are the ends. Square brackets hold non-standard residues; d marks the D form. Peptide text beside a SMILES is read from it. * marks the point of attachment. C20 diacid = O=C(O)CCCCCCCCCCCCCCCCCCC(=O)*; γGlu = O=C(O)[C@H](CCC(=O)[*:2])N[*:1]; Hyp = O=C(O)[C@@H]1C[C@@H](O)CN1

Target: T1, hAMY3 receptor (Homo sapiens, UniProt O60896+P30988)
T1 sequence (P30988 25-474): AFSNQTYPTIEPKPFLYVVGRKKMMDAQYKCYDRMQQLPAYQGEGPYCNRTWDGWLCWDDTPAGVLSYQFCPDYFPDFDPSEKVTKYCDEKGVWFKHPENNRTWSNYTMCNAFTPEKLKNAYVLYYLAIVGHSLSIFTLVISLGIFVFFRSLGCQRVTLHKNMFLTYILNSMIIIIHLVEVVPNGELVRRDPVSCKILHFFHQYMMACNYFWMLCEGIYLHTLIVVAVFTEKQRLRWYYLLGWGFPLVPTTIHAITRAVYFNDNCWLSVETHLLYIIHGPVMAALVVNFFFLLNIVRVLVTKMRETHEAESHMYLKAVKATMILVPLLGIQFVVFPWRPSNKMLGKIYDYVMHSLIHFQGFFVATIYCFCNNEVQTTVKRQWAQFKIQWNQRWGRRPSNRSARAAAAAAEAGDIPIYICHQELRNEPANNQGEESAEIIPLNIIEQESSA
T1 sequence (O60896 24-148 partner): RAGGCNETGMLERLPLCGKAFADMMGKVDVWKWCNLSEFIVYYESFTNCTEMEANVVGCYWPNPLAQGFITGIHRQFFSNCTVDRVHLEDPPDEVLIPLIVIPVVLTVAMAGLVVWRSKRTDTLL
Test: cAMP assay for in vitro receptor activation, hAMY3-R
Type: cell-based
Conditions: cAMP assay, hAMY3 receptor; read-out: hAMY3R EC50
Procedure: General Protocols for cAMP Assays for Measuring In Vitro Receptor Activation
Cells stably overexpressing the hAMY3 receptor were obtained from Ogeda (now Astellas Pharma), sub-cloned and a monoclonal cell-line with an appropriate assay-window was expanded, aliquoted and frozen.
An aliquot was thawed and plated in DPBS with 0.05% casein and 0.5 mM IBMX as 2000 cells/well in a 384-well format. The cells were then immediately stimulated for 30 min at room temperature with graded doses of test compound using human amylin (Bachem, cat no. H-7905) as a positive control. cAMP accumulation was measured using a Cisbio assay for Gs coupled receptors (cat. no. 62AM4PEC), where the assay reagents were added as per the manufacturer's instructions and time-resolved fluorescence energy transfer recorded after one hour.

**Q.** How did the EC50 turn out when `CC(C)C[C@H](NC(=O)[C@H](CCCNC(=N)N)NC(=O)[C@H](CCC(N)=O)NC(=O)[C@@H](NC(=O)[C@@H](NC(=O)[C@@H]1CSSC[C@H](NC(=O)CN)C(=O)N[C@@H](CCCNC(=N)N)C(=O)N[C@@H](Cc2ccccc2)C(=O)NCC(=O)N[C@@H]([C@@H](C)O)C(=O)N1)[C@@H](C)O)C(C)C)C(=O)N[C@@H](C)C(=O)N[C@@H](CC(N)=O)C(=O)N[C@@H](Cc1ccccc1)C(=O)N[C@@H](CC(C)C)C(=O)N[C@@H](Cc1ccc(O)cc1)C(=O)N[C@@H](CCC(N)=O)C(=O)N[C@@H](Cc1ccccc1)C(=O)N[C@H](C(=O)N[C@@H](CC(=O)O)C(=O)N[C@@H](CCCCN)C(=O)N[C@@H](CC(=O)O)C(=O)N[C@@H](CCCCN)C(=O)N[C@@H](CC(=O)O)C(=O)N[C@@H](CC(N)=O)C(=O)N[C@H](C(=O)N[C@@H](C)C(=O)N1CCC[C@H]1C(=O)N[C@@H](CCCNC(=N)N)C(=O)N[C@H](C(=O)N[C@@H](CC(N)=O)C(=O)N[C@H](C(=O)NCC(=O)N1CCC[C@H]1C(=O)N[C@@H](CCC(N)=O)C(=O)NCC(=O)N[C@@H](Cc1ccc(O)cc1)C(N)=O)C(C)C)[C@@H](C)O)C(C)C)[C@@H](C)O` [compound 16] (H-GCRFGTCTVQRLANFLYQFTDKDKDNVAPRTNVGPQGY-NH2; disulfide 2-7) was run?
**A.** Its EC50 is 8 pM.

**Q.** For `CC[C@H](C)[C@H](NC(=O)[C@H](CCC(N)=O)NC(=O)[C@H](Cc1c[nH]cn1)NC(=O)[C@H](C)NC(=O)[C@H](CC(C)C)NC(=O)[C@H](CCCNC(=N)N)NC(=O)[C@H](CCC(N)=O)NC(=O)[C@@H](NC(=O)[C@@H](NC(=O)[C@@H]1CSSC[C@H](NC(=O)[C@@H](N)CCCCN)C(=O)N[C@@H](CC(N)=O)C(=O)N[C@@H](Cc2ccccc2)C(=O)N[C@@H](C)C(=O)N[C@@H]([C@@H](C)O)C(=O)N1)[C@@H](C)O)C(C)C)C(=O)N[C@@H](Cc1ccc(O)cc1)C(=O)N[C@@H](CCC(N)=O)C(=O)N[C@@H](Cc1ccccc1)C(=O)N[C@H](C(=O)N[C@@H](CC(=O)O)C(=O)N[C@@H](CCCCN)C(=O)N[C@@H](CC(=O)O)C(=O)N[C@@H](CCCCN)C(=O)N[C@@H](CC(=O)O)C(=O)N[C@@H](CC(N)=O)C(=O)N[C@H](C(=O)N[C@@H](C)C(=O)N1CCC[C@H]1C(=O)N[C@@H](CCCNC(=N)N)C(=O)N[C@H](C(=O)N[C@@H](CCC(=O)O)C(=O)N[C@H](C(=O)NCC(=O)N[C@@H](CO)C(=O)N[C@@H](CC(N)=O)C(=O)NCC(=O)N1C[C@H](O)C[C@H]1C(N)=O)C(C)C)[C@@H](C)O)C(C)C)[C@@H](C)O` [compound 17] (H-KCNFATCTVQRLAHQIYQFTDKDKDNVAPRTEVGSNG[Hyp]-NH2; disulfide 2-7; N-terminus assumed), which EC50 is on record?
**A.** Its EC50 is 8 pM.

**Q.** How did the EC50 turn out when `CC[C@H](C)[C@H](NC(=O)[C@H](CCC(N)=O)NC(=O)[C@H](Cc1c[nH]cn1)NC(=O)[C@H](C)NC(=O)[C@H](CC(C)C)NC(=O)[C@H](CCCNC(=N)N)NC(=O)[C@H](CCC(N)=O)NC(=O)[C@@H](NC(=O)[C@@H](NC(=O)[C@@H]1CSSC[C@H](NC(=O)[C@@H](N)CCCCN)C(=O)N[C@@H](CC(N)=O)C(=O)N[C@@H](Cc2ccccc2)C(=O)N[C@@H](C)C(=O)N[C@@H]([C@@H](C)O)C(=O)N1)[C@@H](C)O)C(C)C)C(=O)N[C@@H](Cc1ccc(O)cc1)C(=O)N[C@@H](CCC(N)=O)C(=O)N[C@@H](Cc1ccccc1)C(=O)N[C@H](C(=O)N[C@@H](CC(=O)O)C(=O)N[C@@H](CCCCN)C(=O)N[C@@H](CC(=O)O)C(=O)N[C@@H](CCCCN)C(=O)N[C@@H](CC(=O)O)C(=O)N[C@@H](CC(N)=O)C(=O)N[C@H](C(=O)N[C@@H](C)C(=O)N1CCC[C@H]1C(=O)N1CCC[C@H]1C(=O)N[C@H](C(=O)N[C@@H](CCC(=O)O)C(=O)N[C@H](C(=O)NCC(=O)N[C@@H](CO)C(=O)N[C@@H](CC(N)=O)C(=O)NCC(=O)N1CCC[C@H]1C(N)=O)C(C)C)[C@@H](C)O)C(C)C)[C@@H](C)O` [compound 18] (H-KCNFATCTVQRLAHQIYQFTDKDKDNVAPPTEVGSNGP-NH2; disulfide 2-7) was run?
**A.** The EC50 was 8 pM.

**Q.** How did the EC50 turn out when `CC[C@H](C)[C@H](NC(=O)[C@H](CCC(N)=O)NC(=O)[C@H](Cc1c[nH]cn1)NC(=O)[C@H](C)NC(=O)[C@H](CC(C)C)NC(=O)[C@H](CCCNC(=N)N)NC(=O)[C@H](CCC(N)=O)NC(=O)[C@@H](NC(=O)[C@@H](NC(=O)[C@@H]1CSSC[C@H](NC(=O)[C@@H](N)CCCCN)C(=O)N[C@@H](CC(N)=O)C(=O)N[C@@H]([C@@H](C)O)C(=O)N[C@@H](C)C(=O)N[C@@H]([C@@H](C)O)C(=O)N1)[C@@H](C)O)C(C)C)C(=O)N[C@@H](Cc1ccc(O)cc1)C(=O)N[C@@H](CCC(N)=O)C(=O)N[C@@H](Cc1ccccc1)C(=O)N[C@H](C(=O)N[C@@H](CC(=O)O)C(=O)N[C@@H](CCCCN)C(=O)N[C@@H](CC(=O)O)C(=O)N[C@@H](CCCCN)C(=O)N[C@@H](CC(=O)O)C(=O)N[C@@H](CC(N)=O)C(=O)N[C@H](C(=O)N[C@@H](C)C(=O)N1CCC[C@H]1C(=O)N[C@@H](CCCNC(=N)N)C(=O)N[C@H](C(=O)N[C@@H](CCCCN)C(=O)N[C@H](C(=O)NCC(=O)N[C@@H](CO)C(=O)N[C@@H](CC(N)=O)C(=O)NCC(=O)N[C@@H](Cc1ccc(O)cc1)C(N)=O)C(C)C)[C@@H](C)O)C(C)C)[C@@H](C)O` [compound 34] (H-KCNTATCTVQRLAHQIYQFTDKDKDNVAPRTKVGSNGY-NH2; disulfide 2-7; N-terminus assumed) was run?
**A.** The EC50 was 9 pM.

**Q.** How did the EC50 turn out when `CC[C@H](C)[C@H](NC(=O)[C@H](CCC(N)=O)NC(=O)[C@H](Cc1ccc(O)cc1)NC(=O)[C@H](C)NC(=O)[C@H](CC(C)C)NC(=O)[C@H](CCCNC(=N)N)NC(=O)[C@H](CCC(N)=O)NC(=O)[C@@H](NC(=O)[C@@H](NC(=O)[C@@H]1CSSC[C@H](NC(=O)[C@H](CCCCN)NC(=O)CC[C@H](NC(=O)CCCCCCCCCCCCCCCCCCC(=O)O)C(=O)O)C(=O)N[C@@H](CC(N)=O)C(=O)N[C@@H]([C@@H](C)O)C(=O)N[C@@H](C)C(=O)N[C@@H]([C@@H](C)O)C(=O)N1)[C@@H](C)O)C(C)C)C(=O)N[C@@H](Cc1ccc(O)cc1)C(=O)N[C@@H](CCC(N)=O)C(=O)N[C@@H](Cc1ccccc1)C(=O)N[C@H](C(=O)N[C@@H](CC(=O)O)C(=O)N[C@@H](CCCCN)C(=O)N[C@@H](CC(=O)O)C(=O)N[C@@H](CCCCN)C(=O)N[C@@H](CC(=O)O)C(=O)N[C@@H](CC(N)=O)C(=O)N[C@H](C(=O)N[C@@H](C)C(=O)N1CCC[C@H]1C(=O)N1CCC[C@H]1C(=O)N[C@H](C(=O)N[C@@H](CC(N)=O)C(=O)N[C@H](C(=O)NCC(=O)N[C@@H](CO)C(=O)N[C@@H](CC(N)=O)C(=O)NCC(=O)N1C[C@H](O)C[C@H]1C(N)=O)C(C)C)[C@@H](C)O)C(C)C)[C@@H](C)O` [compound 47] ({C20 diacid-γGlu}-KCNTATCTVQRLAYQIYQFTDKDKDNVAPPTNVGSNG[Hyp]-NH2; disulfide 2-7) was run?
**A.** Its EC50 is 11 pM.

**Q.** With `CC[C@H](C)[C@H](NC(=O)[C@H](CCC(N)=O)NC(=O)[C@H](Cc1c[nH]cn1)NC(=O)[C@H](C)NC(=O)[C@H](CC(C)C)NC(=O)[C@H](CCCNC(=N)N)NC(=O)[C@H](CCC(N)=O)NC(=O)[C@@H](NC(=O)[C@@H](NC(=O)[C@@H]1CSSC[C@H](NC(=O)[C@H](CCCCN)NC(=O)CC[C@H](NC(=O)CCCCCCCCCCCCCCCCCCC(=O)O)C(=O)O)C(=O)N[C@@H](CC(N)=O)C(=O)N[C@@H]([C@@H](C)O)C(=O)N[C@@H](C)C(=O)N[C@@H]([C@@H](C)O)C(=O)N1)[C@@H](C)O)C(C)C)C(=O)N[C@@H](Cc1ccc(O)cc1)C(=O)N[C@@H](CCC(N)=O)C(=O)N[C@@H](Cc1ccc(O)cc1)C(=O)N[C@H](C(=O)N[C@@H](CC(=O)O)C(=O)N[C@@H](CCCCN)C(=O)N[C@@H](CC(=O)O)C(=O)N[C@@H](CCCCN)C(=O)N[C@@H](CC(=O)O)C(=O)N[C@@H](CC(N)=O)C(=O)N[C@H](C(=O)N[C@@H](C)C(=O)N1CCC[C@H]1C(=O)N1CCC[C@H]1C(=O)N[C@H](C(=O)N[C@@H](CC(N)=O)C(=O)N[C@H](C(=O)NCC(=O)N[C@@H](CO)C(=O)N[C@@H](CC(N)=O)C(=O)NCC(=O)N1C[C@H](O)C[C@H]1C(N)=O)C(C)C)[C@@H](C)O)C(C)C)[C@@H](C)O` [compound 48] ({C20 diacid-γGlu}-KCNTATCTVQRLAHQIYQYTDKDKDNVAPPTNVGSNG[Hyp]-NH2; disulfide 2-7) as the molecule, how does the EC50 read?
**A.** The EC50 was 11 pM.
